# Reference: PMC10126473 (Frontiers in Pharmacology, 2023)
# Where “and” joins values, the source holds several entries; their conditions need not be identical. Equal values may be shown once. Read-outs that look alike come from different tables or passages of the source. Marks after values point to notes of the source that are not given here.
# Experiments:
# in vivo [1] = settings: male, C57BL/6, mouse, in vivo
# Description: The in-life study (Animal Study Protocol Number: NIH ORS-51) was conducted at the NIH Animal Facility by the Division of Veterinary Resources (DVR, Bethesda, MD). In this study, 25–35 g male C57BL/6 mice (Charles River Laboratories, Frederick, MD) were used. For the IV groups, 66 mice (33 mice per dosing group, 3 mice per timepoint) were used for a single bolus IV dose of 3 or 10 mg/kg of PDN via tail vein injection. […] The IV and PO doses were selected to obtain a complete concentration profile in plasma and tissues, based on a preliminary study. Animals were not fasted in this study. […] All dosing solutions were freshly prepared on the day of dosing. At designated time points, blood samples were collected, and mice were euthanized with CO2 in accordance with NIH ARAC Guidelines after blood collection. The death was ensured by cervical dislocation or transthoracic puncture. Lung, liver, adipose, brain, heart, small intestine, kidney, skeletal muscle, and spleen samples were obtained from mice. […] Tissue samples were rinsed with cold saline, dried on filtrate paper, weighed, and snap frozen by placing into dry ice after collection. All samples were stored at −80°C until the analysis. All blood samples were collected in K2EDTA tubes and centrifuged at 3000 g for 10 min at 4°C to obtain plasma. Plasma samples were transferred to tubes preloaded with NaF (final concentration at 5 mM in 200 µL plasma) and stored at −80°C until analysis.
# (§1) For fat tissue, an additional 3-fold volume of acetonitrile was added to the water homogenate and was vortexed in a shaker for another 30 min.
# (§2) A 10 μ aliquot of samples, blank controls (blank plasma or tissue homogenates), quality controls (QC), and standards were added into 200 μ acetonitrile solution with 100 ng/mL tolbutamide (internal standard, IS). All samples were then thoroughly shaken for 5 min to precipitate proteins. The samples were centrifuged at 3000 rpm and 4°C for 30 min. The supernatant was injected for UPLC-MS/MS analysis.
# (§3) The mobile phase consisted of 0.1% formic acid in water (A) and 0.1% formic acid in acetonitrile (B), the flow rate was 600 μL/min. […] All analyses were carried out using a Waters Acquity I-Class UPLC interfaced with a Waters Xevo TQ-S mass spectrometer. The mass spectrometer multiple reaction monitoring (MRM) experiment was operated with an ESI source at negative mode with spray voltage of 1 kV, and temperature of 600°C. Both Q1 and Q3 were set at unit resolution. […] The correlation coefficients of the calibration curves were all greater than 0.99. […] The linear range, precision and accuracy of QCs in various tissues and plasma are shown in Supplementary Table S1 and Supplementary Table S2.
# (§4) The area under the concentration vs. time curve (AUC) was calculated using the linear trapezoidal method. The terminal rate constant (λ) was obtained from the slope of at least three data points of the apparent terminal phase of the log linear concentration vs. time curve. AUC0–∞ was estimated as the sum of the AUC0–t (where t is the time of the last measurable concentration) and Ct/λ. […] Bioavailability (F) was calculated using ratios of dose-normalized AUC of PO and IV administration.
# in vivo [2] = settings: hamster, in vivo
# Description: For the IV group, a single bolus IV dose of 3 mg/kg of PDN was administered to 24 hamsters (3 hamsters per time point). For the PO group, a dose of 30 mg/kg of PDN was administered via oral gavage to 21 hamsters (3 hamsters per time point). The formulation used for both IV and PO was 20% HP-β-CD in water (0.6 mg/mL PDN for IV and 3 mg/mL for PO). All dosing solutions were freshly prepared on the day of dosing. […] After collection, tissues were weighed and frozen. All blood samples were centrifuged at 4°C to obtain plasma. Plasma samples were transferred to tubes preloaded with NaF (final concentration at 5 mM in 200 µL plasma) and stored at −80°C until analysis.
# as §1, §2, §3, §4
# [3] = PBPK model (GastroPlus): simulation and model parameters incl. permeability surface product and scaled metabolic kinetics, mouse; settings: conversion to Others
# Description: (§5) CL in vitro,app expressed as mL/min/mg microsomes were scaled to the predicted CLintrinsic using scaling factor (SF), microsome level and liver weight as indicated below: CLintrinsic=CLin vitro,app×SF×liver weight×microsome level per gram liver
# (§6) All modeling and simulation were carried out using GastroPlus version 9.5 (Simulations Plus Inc., CA). Physiochemical parameters including blood-to-plasma ratio (Rbp), pKa, and logP were predicted by ADMET predictor (Simulations Plus Inc., CA). Physiologies of all species, including organ weights, volumes, tissue compositions, and blood perfusion rates, were generated by the program’s internal module. Tissue intracellular unbound fractions were generated by GastroPlus based on predicted or experimentally determined physiochemical and chemical-biological parameters including pKa, logP, plasma unbound fractions (Fup), Rbp, solubility, and PAMPA permeability. The PBPK model structure is illustrated in Figure 2 and its parameters are summarized in Supplementary Tables S3–6. The default absorption and dissolution model was applied and effective intestine permeability was predicted by a built-in correlation from the experimental PAMPA permeability result. Parameters including partition coefficients in tissue (Kp), CLintrinsic, and permeability surface area product (PStc) were estimated by fitting the model to experimental data using the optimization module in GastroPlus with objective function weights at 1/(y + ŷ)^2, where y is the observed value and ŷ is the predicted value.
# Model parameter estimation of all plasma-tissue partition coefficients (Kp) was performed simultaneously using both the IV and PO datasets. […] The experimentally determined pharmacokinetic profiles were compared with the model simulations.
# [4] = PBPK model (GastroPlus): simulation and model parameters incl. permeability surface product and scaled metabolic kinetics, hamster; settings: conversion to Others
# Description: as §5, §6
# Experimental measurements of hamster plasma pharmacokinetics and lung concentrations were used in the model validation.
# [5] = PBPK model (GastroPlus): simulation and model parameters incl. permeability surface product and scaled metabolic kinetics, human; settings: conversion to Others
# [6] = mouse, pH 7.4
# Description: (§7) The incubation was carried out at 37°C for 15, 30, and 60 min. The reaction in plasma or liver microsomes was quenched by adding 200 μL of cold acetonitrile (containing 100 ng/mL tolbutamide as internal standard).
# (§8) The mc was the microsome concentration used in the incubation (0.5 mg/mL). The substrate disappearance half-life (t1/2) was estimated by regression analysis of the semi-logarithmic (ln Conc vs. time) plots. […] The Vmax, in vitro,app, PDN-total and Km for PDN depletion in liver microsomes were estimated by the Michaelis-Menten model using GraphPad Prism version 8.
# [7] = hamster, pH 7.4
# Description: as §7, §8
# [8] = human, pH 7.4
# Description: as §7, §8
# [9] = cited from earlier work
# [10] = rat, in vivo, cited from earlier work
# [11] = dog, in vivo; cited from earlier work
# [12] = human, in vivo, po, cited from earlier work
# [13] = cited from earlier work; remark: listed apart in the source
# [14] = human; cited from earlier work
# UGT enzymes = settings: cited from earlier work
# [15] = rats, acute toxicity test; ref Andrews et al., 1982; cited from earlier work
# physchem = settings: pH 7.4, aqueous buffer, kinetic from dmso stock
# Description: Samples were incubated at room temperature for 6 h and vacuum-filtered using Tecan Te-Vac to remove any precipitates. The concentration of the compound in the filtrate was measured via UV absorbance (λ: 250–498 nm). […] All compounds were tested in duplicates. The kinetic solubility (µg/mL) of compounds was calculated using the µSOL Evolution software.
# in vitro = settings: PAMPA, pH 7.4
# Description: The test samples (0.05 mM test article in pH 7.4 buffer with 0.5% DMSO) were added in the donor compartment and were stirred using the Gutbox technology (Pion Inc.) to reduce the aqueous boundary layer. The test article concentrations in the donor and acceptor compartments were measured using a UV plate reader (Nano Quant, Infinite 200 PRO, Tecan Inc., Männedorf, Switzerland).
# [16] = male, LVG golden Syrian, po, 30 mg/kg
# [17] = in vivo, predicted from in vitro liver parameters
smiles,measurement,setting,value
"O=C(Nc1ccc([N+](=O)[O-])cc1Cl)c1cc(Cl)ccc1O [Nc, Niclosamide, reference compound]",AUC(0-inf),"in vivo [1]; iv, 3 mg/kg",577 ng·h/mL
same,AUC(0-inf),"in vivo [1]; iv, 10 mg/kg",1390 ng·h/mL
same,AUC(0-inf),"in vivo [1]; po, 10 mg/kg",1610 ng·h/mL
same,Cmax,"in vivo [1]; po, 10 mg/kg",346 ng/mL
same,dose-normalized AUC0-∞ of Nc,"in vivo [1]; po, 10 mg/kg",216 (h*ng/mL)/(mg/kg)
same,AUC0-∞ Observed,"in vivo [2]; iv, 3 mg/kg",1030 (98) h*ng/g
same,AUC0-∞ Observed,"in vivo [2]; po, 30 mg/kg",5020 (294) h*ng/g
same,AUC(0-inf),"in vivo [2]; male, LVG golden Syrian, iv, 3 mg/kg",203 ng·h/mL
same,AUC(0-inf),in vivo [2]; [16],1890 ng·h/mL
same,Cmax,in vivo [2]; [16],1170 ng/g and 623 ng/mL
same,dose normalized plasma AUC0-∞ of Nc,in vivo [2]; [16],88 (h*ng/mL)/(mg/kg)
same,Tmax,"in vivo [2]; male, LVG golden Syrian, po, 30 mg/kg, Tmax Observed",1 h
same,half-life,"in vivo [2]; male, LVG golden Syrian, po, 30 mg/kg, t1/2 Observed",~1.9 h
same,Liver Vmax,[3]; in vivo (scaled),0.0949 mg/s/mg microsomes
same,Gut Vmax,[3]; [17],0.0408 mg/s/mg microsomes
same,Liver Vmax,[4]; in vivo (scaled),0.1463 mg/s/mg microsomes
same,Gut Vmax,[4]; [17],0.0629 mg/s/mg microsomes
same,Liver Vmax,[5]; in vivo (scaled),0.0738 mg/s/mg microsomes
same,Gut Vmax,[5]; [17],0.0317 mg/s/mg microsomes
same,Liver Vmax,[6],0.07474 mg/s/mg microsomes
same,Liver Vmax,[7],0.1152 mg/s/mg microsomes
same,Liver Vmax,[8],0.0581 mg/s/mg microsomes
same,PAMPA permeability,[9],<1 ^b 10^−6 cm/s
same,oral bioavailability,[10]; po,5.5%
same,volume of distribution,[10],less than 0.4 L/kg
same,oral bioavailability,[11],0.54%
same,plasma Cmax,[12]; 500 mg,35.7 to 182 ng/mL
same,"serum maximal concentration (Cmax), Nc equivalent",[12]; 2000 mg,250 to 6000 ng/mL
same,median plasma Cmax,[12],665 ng/mL
same,Fup (unbound fraction in plasma),[13],0.14% (rodent) ^b
same,plasma protein binding,[13],> 99.8%
same,Fup (unbound fraction in plasma),[14],0.16% (human) ^b
same,Km,UGT enzymes,0.09 to 1.67 µM
same,"UGT-mediated hepatic CL in vitro,app",UGT enzymes; mouse,0.18-0.21 mL/min/mg microsomes
same,oral LD50,[15],> 5000 mg/kg
"CCCSc1ccc2nc(NC(=O)OC)[nH]c2c1 [Albendazole, reference compound]",solubility,physchem,< 1 µg/mL
"CNC(=C[N+](=O)[O-])NCCSCc1ccc(CN(C)C)o1 [Ranitidine, reference compound]",Papp at 0.05 mM,in vitro,< 1 ×10⁻⁶ cm/s
"Nc1ccc(/N=N/c2ccccc2)c(N)n1 [Phenazolpyridine, reference compound]",solubility,physchem,26 µg/mL
